Source: patent US5210075A, “Interleukin 6 antagonist peptides” (Tanabe Seiyaku Co., Ltd., priority 1990, dated 1993)

Tested on: IL-6 mediated proliferation of B9.9 cells
Test: IL-6-dependent B9.9 cell proliferation assay
Format: cell-based, mouse
Settings: peptide concentration = 250 μM
Source text: Peptides according to the invention were synthesized by the solid phase peptide synthesis method (Merrifield, J. Am. Chem. Soc. 85:2149, 1963). The amino acid numbering of peptides derived from the IL-6 receptor (IL-6R) sequence is based on the published sequence of Yamasaki, et al, (Science 241:825, 1988), and numbering of peptides derived from the IL-6 sequence is based on the sequence of IL-6 as published by Hirano, et al. (Nature 324:73, 1986). The numbering refers to the position of the amino acids in the mature protein after excision of the signal sequence. Activity was established in an IL-6-dependent B9.9 cell proliferation assay as described hereunder.
IL-6 antagonist activity of the subject peptides was measured using the IL-6 dependent B9.9 hybridoma cell line as described in Brakenhoff et al., J. Immunol. […]
1×10^4 cells were cultured in presence of 4-fold serial dilutions (1:16 to 1:65,536) of F-IL-6 in RPMI supplemented with 10% fetal calf serum, 2 mM L-glutamine, and 5 ×10^-5 M 2-mercaptoethanol in flat bottom microtiter plates. After 2 days the cells were incubated for 4 hours with 3-(4,5-dimethylthiazol-2-yl)-diphenyl tetrazolium bromide (MTT) and the absorbance was measured at 570-650 nm as described in Mosmann, J. Immunol. […] One unit of IL-6 was defined as the amount of IL-6 required to obtain half maximal proliferation and was calculated by probit analysis. […]

## Ac-GQLRAQEEFGQGE-NH2 [Ac-GQLRAQEEFGQGE-NH2]
  Percent Inhibition of IL-6 mediated proliferation of B9.9 cells: 92 ± 6%

## GAAAENNNLNLP
  Percent Inhibition of IL-6 mediated proliferation of B9.9 cells: 29 ± 19%
